A value given as a limit tells only on which side of the number the result lay.

The experiment deals with lymphocytes of patients suffering from chronic lymphoid leukaemia (human leukaemia cells). The experiment in a line: Sensibility of chronic lymphoid leukaemia lymphocytes in culture, 3H-thymidine incorporation (CPM) with or without PHA stimulation. The experiment is classed as cell-based. How it is done:
The sensibility of human leukaemia cells to acetoxymethyl 3β-(methoxypolyethylene glycol acetoxy)-lup-20(29)-en-28-oate 4c-β at different concentrations (from 0.04 mM up to 1 mM) was tested in vitro. The lymphocytes of three patients (4266866, 4266860 and 4262311) suffering from chronic lymphoid leukaemia were used in cell cultures.
On day 0: A multi-well plate was prepared per patient, each comprising 10^6 cells/well in a total volume of 1 ml. Cells, RPMI (cell growth medium) and test compound 4c-β were added in accordance with table 2 (all experiments were duplicated). The test compound dissolved in RPMI was added in the following amounts: 10 μl≡0.04 mM, 50 μl≡0.2 mM, 100 μl≡0.4 mM, 150 μl≡0.6 mM, 200 μl≡0.8 mM, and 250 μl≡1 mM.
On day 2: • 500 μl was taken from each well of plate 1 and put into a well of plate 2. • Plate 2: cells were tritiated with ^3H-thymidine for 4 hours; after the 4 hours incubation in the presence of radioactivity, plate 2 was harvested and radioactivity was counted. • Plate 1: 50 μl PHA was added to the 500 μl of each well of plate 1.
On day 5: • Plate 1: cells and PHA were tritiated with ^3H-thymidine for 4 hours; after the 4 hours incubation in the presence of radioactivity, plate 1 was harvested and radioactivity was counted.
PHA (a lectin named phytoagglutine, which is a mitogen activating living cells) was added to the cells in culture. PHA acts as a stimulating agent. All human lymphocytes have receptors for this type of lectin and all human lymphocytes undergo lymphoblastic transformation when stimulated by PHA. By adding PHA to the cells in culture, it was possible to measure whether the cells were still alive.
CPM stands for counts per minute and measures the disintegration of the tritiated ^3H-thymidine. Thus, CPM reflects the radioactivity of the cells' DNA having incorporated the tritiated ^3H-thymidine after mitosis. […]
On day 0: A multi-well plate was prepared, comprising 10^6 cells/well in a total volume of 1.5 ml. […] The test compound dissolved in RPMI was added in the following amounts: 125 μl≡0.5 mM and 250 μl≡1 mM. […]
The sensibility of human leukaemia cells to acetoxymethyl 3β-(methoxypolyethylene glycol acetoxy)-lupan-28-oate 8c-β at different concentrations (0.5 mM and 1 mM) was tested in vitro. The lymphocytes of one patient (4316182) suffering from chronic lymphoid leukaemia were used in cell cultures. […]
On day 2: • Plate 1: cells were tritiated with ^3H-thymidine for 4 hours; after the 4 hours incubation in the presence of radioactivity, plate 1 was harvested and radioactivity was counted. • Plate 2: cells were tritiated with ^3H-thymidine for 4 hours; after the 4 hours incubation in the presence of radioactivity, plate 2 was harvested and radioactivity was counted.

[1] abbreviates: 0.5 mM and 1 mM, one patient, FIG. 4.

Turning to “Acetoxymethyl 3β-(methoxypolyethylene glycol acetoxy)-lupan-28-oate [compound 8c-β]”, under setting [1], the “killing of cells by test compound” value was “killed the cells” and the “reactivation of cells by addition of PHA after contact with test compound” value was “unable to be reactivated by the addition of PHA”.
With “Acetoxymethyl 3β-(methoxypolyethylene glycol acetoxy)-lup-20(29)-en-28-oate [compound 4c-β]”, the “activation of cells by PHA after contact with test compound” value (plate 1, PHA added day 2, counted day 5, 0.04 mM up to 1 mM, three patients, FIGS. 2a-c) was “could no longer be activated by PHA”. In addition, where the note is “plate 2, 0.04 mM up to 1 mM, three patients, FIGS. 2a-c”, the “time within which cells contacted with test compound were killed (CPM after 3H-thymidine)” value was at most 48 h.

For the origin of these results see US8586569B2, “Betulonic and betulinic acid derivatives” (priority 2006, dated 2013).
